In PubChem BioAssay (NCI):
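Tested at 5 concentrations; 48 h exposure; 96-well plates; endpoints linearly interpolated, else capped at highest concentration. Here, GI50 denotes the concentration required for 50% inhibition of growth. The concentration for full growth arrest is given as TGI.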

Assays:
Assay in all cases: inhibition of tumour cell growth, NCI panel, 48 h
HOP-62 NSCLC = system: HOP-62 NSCLC
SK-OV-3 ovarian = system: SK-OV-3 ovarian
EKVX NSCLC = system: EKVX NSCLC
OVCAR-3 ovarian = system: OVCAR-3 ovarian
CAKI-1 renal = system: CAKI-1 renal
A549 NSCLC = system: A549 NSCLC
SF-295 CNS = system: SF-295 CNS
HCC-2998 colon = system: HCC-2998 colon
SF-268 CNS = system: SF-268 CNS
MDA-MB-435 = system: MDA-MB-435

Structure (SMILES)	GI50 (HOP-62 NSCLC)	TGI (HOP-62 NSCLC)	GI50 (SK-OV-3 ovarian)	TGI (SK-OV-3 ovarian)	GI50 (EKVX NSCLC)	TGI (EKVX NSCLC)	GI50 (OVCAR-3 ovarian)	TGI (OVCAR-3 ovarian)	GI50 (CAKI-1 renal)	TGI (CAKI-1 renal)	GI50 (A549 NSCLC)	TGI (A549 NSCLC)	GI50 (SF-295 CNS)	TGI (SF-295 CNS)	GI50 (HCC-2998 colon)	TGI (HCC-2998 colon)	GI50 (SF-268 CNS)	TGI (SF-268 CNS)	GI50 (MDA-MB-435)	TGI (MDA-MB-435)
OCCNC(=S)Nc1ccc(-c2nc(N3C[C@H]4CC[C@@H](C3)O4)c3cccn3n2)cc1	0.0324 µM	0.662 µM	0.0162 µM	0.104 µM	0.0629 µM	6.59 µM	0.0664 µM	4.39 µM	0.132 µM	> 37.8 µM	0.0856 µM	2.75 µM	0.0328 µM	0.265 µM	0.0779 µM	18.6 µM	0.079 µM	25.8 µM	0.0597 µM	2.86 µM
Cc1c(C)n(CC(O)CNC2CCCCC2C)c2ccccc12 (stereo not given)	16.6 µM	32 µM	18.2 µM	32.9 µM			16.4 µM	29.9 µM	12.4 µM	24.9 µM	16.9 µM	32.8 µM	14.1 µM	28.2 µM	3.03 µM	10.5 µM	15.4 µM	30.2 µM	12.8 µM	25.4 µM
Cc1ccccc1NC(=O)N/C(N)=N/c1nc(C)c(C)s1	0.404 µM	> 65.6 µM	0.596 µM	> 100 µM	0.542 µM	> 100 µM	0.17 µM	13.5 µM	0.197 µM	97.1 µM	0.545 µM	> 100 µM	0.164 µM	> 100 µM	0.712 µM	> 100 µM	15.9 µM	> 100 µM	0.0332 µM	0.468 µM
COc1ccc(C(=O)OC2C(OC3C(O)COC(O[C@H]4C[C@H]5[C@@H]6CC=C7C[C@@H](O)CC[C@]7(C)[C@H]6CC[C@]5(C)[C@H]4[C@H](C)C(=O)CCC(C)C)C3OC(=O)C(C)C)OCC(O)C2O)cc1 (stereo not given in full)	0.0129 µM	1.45 µM	0.0127 µM	1.52 µM	0.0163 µM	3.87 µM	0.884 µM	5.88 µM	0.0172 µM	1.64 µM	0.0224 µM	4.58 µM	< 0.00275 µM	0.00385 µM	1.88 µM	5.79 µM	0.0195 µM	3.33 µM	0.0154 µM	0.216 µM
C[C@]12CC/C(=N\O)C[C@@H]1CC[C@@H]1[C@@H]2CC[C@]2(C)/C(=N/O)CC[C@@H]12			51.4 µM	> 100 µM	44.6 µM	> 100 µM	17.4 µM	59.1 µM	25.4 µM	86.2 µM	52.7 µM	> 100 µM	38.2 µM	> 100 µM					24.8 µM	70.8 µM
COc1cc(-c2nn(-c3ccc(NC(=O)Nc4ccc(Cl)c(C(F)(F)F)c4)cc3)cc2-c2ccncc2)ccc1Cl	1.9 µM	3.93 µM	2.53 µM	6.43 µM	1.1 µM	3.95 µM	1.57 µM	3.59 µM	1.29 µM	3.54 µM	2.66 µM	11.4 µM			1.64 µM	3.1 µM	1.93 µM	5.01 µM	1.6 µM	3.54 µM
